Here are results for two compounds from article PMC9317966, “Structure-function analysis of the AMPK activator SC4 and identification of a potent pan AMPK activator” (Biochemical Journal, 2022).

Structures are written as SMILES.

The test system of series [1] is rodent and non-human primate models of T2DM. Also noted: method as in PMID 28705990. The note with it: cited from earlier work.
Series [2] deals with T1, GST-α1β1γ1 AMPK in solution (Homo sapiens, UniProt Q13131+Q9Y478).
T1 construct: triply transfected with full-length AMPK α1 or α2 (NH2-terminal GST fusion, pDEST27 vector); full-length AMPK α1 or α2 (NH2-terminal GST fusion, pDEST27 vector), β1 or β2 (COOH-terminal FLAG fusion, pcDNA3.1 vector); FLAG (C); made in house; host or cells: HEK293T/17 cells, transient triple transfection
T1 sequence (Q13131 whole entry, the tested form may be a part): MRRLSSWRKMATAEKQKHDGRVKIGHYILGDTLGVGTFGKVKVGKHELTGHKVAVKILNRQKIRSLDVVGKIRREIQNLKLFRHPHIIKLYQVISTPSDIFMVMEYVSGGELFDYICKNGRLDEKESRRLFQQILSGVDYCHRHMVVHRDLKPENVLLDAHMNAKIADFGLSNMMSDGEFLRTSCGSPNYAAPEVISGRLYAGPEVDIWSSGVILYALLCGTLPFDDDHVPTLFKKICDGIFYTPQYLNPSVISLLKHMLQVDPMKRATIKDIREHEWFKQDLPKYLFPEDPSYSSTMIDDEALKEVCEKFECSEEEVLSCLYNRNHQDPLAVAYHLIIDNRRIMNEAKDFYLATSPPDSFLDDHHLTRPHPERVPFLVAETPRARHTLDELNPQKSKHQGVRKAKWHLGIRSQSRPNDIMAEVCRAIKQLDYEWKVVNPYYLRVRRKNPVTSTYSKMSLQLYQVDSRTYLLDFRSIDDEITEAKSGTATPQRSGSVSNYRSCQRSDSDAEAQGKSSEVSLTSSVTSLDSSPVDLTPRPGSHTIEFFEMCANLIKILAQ
T1 sequence (Q9Y478 whole entry, the tested form may be a part): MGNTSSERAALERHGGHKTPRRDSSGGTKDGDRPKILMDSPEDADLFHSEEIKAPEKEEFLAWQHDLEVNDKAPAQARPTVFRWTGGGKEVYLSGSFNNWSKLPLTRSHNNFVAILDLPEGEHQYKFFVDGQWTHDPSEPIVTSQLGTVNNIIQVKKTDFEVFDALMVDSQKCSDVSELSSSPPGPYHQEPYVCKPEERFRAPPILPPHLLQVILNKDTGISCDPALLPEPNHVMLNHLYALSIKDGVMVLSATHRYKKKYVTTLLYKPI
T1 sequence (P54619 whole entry partner, the tested form may be a part): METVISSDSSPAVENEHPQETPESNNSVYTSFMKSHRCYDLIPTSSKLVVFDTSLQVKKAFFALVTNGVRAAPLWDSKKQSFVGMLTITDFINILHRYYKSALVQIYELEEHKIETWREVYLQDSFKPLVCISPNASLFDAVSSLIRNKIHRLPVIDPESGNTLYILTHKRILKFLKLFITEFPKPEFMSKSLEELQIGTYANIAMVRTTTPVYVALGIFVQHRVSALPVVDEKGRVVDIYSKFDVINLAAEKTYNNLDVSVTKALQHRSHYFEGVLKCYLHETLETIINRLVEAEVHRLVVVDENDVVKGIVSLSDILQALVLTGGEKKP
Kind of series: In solution SAMS kinase assay, HEK293T/17-expressed GST-α1β1γ1 eluted from glutathione Sepharose. The series is classed as biochemical. The note with it: for EC50: 0-30 µM activator. How it is done: Adherent HEK293T/17 cells at ∼50% confluency were triply transfected with full-length AMPK α1 or α2 (NH2-terminal GST fusion, pDEST27 vector), β1 or β2 (COOH-terminal FLAG fusion, pcDNA3.1 vector), and γ1, γ2 or γ3 (NH2-terminal HA fusion, pMT2 vector) in the presence of FuGENE HD transfection reagent (Promega) as per the manufacturers protocol. Cells were harvested 48 hours post-transfection by first gently washing in ice cold phosphate buffered saline (PBS; Sigma–Aldrich), then scraping in ice cold lysis buffer (50 mM TRIS pH 7.5, 150 mM NaCl, 10% (v/v) glycerol, 50 mM NaF, 5 mM sodium pyrophosphate, 1% (v/v) Triton X-100, cOmplete protease inhibitor cocktail). Lysates were clarified by centrifugation (16 000g, 3 min, 4°C), flash frozen in liquid N2 and stored at −80°C until analysis. For radioactive kinase assays, AMPK was immobilised on glutathione Sepharose 4B resin (GE Healthcare) by incubation with lysates for 1.5 h at 4°C. Following centrifugation (1000g, 3 min, 4°C), the resin was washed twice in purification buffer (50 mM HEPES pH 7.4, 150 mM NaCl, 10% (v/v) glycerol, 0.02% (v/v) Tween-20), once in 50 mM HEPES pH 7.4 with 0.02% (v/v) Tween-20, then resuspended to a 50% slurry with 50 mM HEPES pH 7.4 and 10 µl added to the activity assays. For in solution kinase assays, α1β1γ1 AMPK was eluted from glutathione-Sepharose by incubating with purification buffer supplemented with 40 mM reduced glutathione (Sigma–Aldrich).
AMPK activity was determined by phosphorylation of the SAMS peptide (Purar Chemicals, sequence: NH2-HMRSAMSGLHLVKRR-COOH) in a 25 µl reaction volume containing 100 µM SAMS peptide, 5 mM MgCl2, 200 µM ATP, [γ-^32P]-ATP (PerkinElmer) and assay buffer (50 mM HEPES pH 7.4, 1 mM DTT and 0.02% (v/v) Tween-20) and purified AMPK. Phosphotransferase activity was conducted at 30°C for 10 min and reactions were quenched by spotting 15 µl onto phosphocellulose ion-exchange chromatography paper (made in-house), followed by repeated washes in 1% H3PO4 (Merck Millipore). Ultima Gold liquid scintillation fluid (5 ml; PerkinElmer) was added to vials containing dried phosphocellulose papers, and the level of ^32P-transfer to the SAMS peptide was determined using a Tri-Carb 2900TR liquid scintillation counter (PerkinElmer).
⍺1β1γ1 – in solution E. coli-expressed ⍺2β1γ1 […]
log [compound] (M) log [compound] (M)
Compound EC (nM) Max. fold Compound EC50 (nM) Max. fold
Supplementary Figure 3. In solution activation kinetics for AMPK complexes. Related to Figure 2. Activities measured in the presence of 0-30 µM AMPK activators. […]

Series [3] relates to HepG2 cells and C2C12 myotubes. Also noted: method as in PMID 28705990. The note with it: cited from earlier work.
Another series addresses T2, human GST-AMPK α1β2γ1 (Homo sapiens, UniProt O43741+Q13131).
T2 construct: triply transfected with full-length AMPK α1 or α2 (NH2-terminal GST fusion, pDEST27 vector); full-length AMPK α1 or α2 (NH2-terminal GST fusion, pDEST27 vector), β1 or β2 (COOH-terminal FLAG fusion, pcDNA3.1 vector); FLAG (C); made in house; host or cells: HEK293T/17 cells, transient triple transfection
Kind of series: Radiolabel SAMS kinase assay, GST-AMPK from HEK293T/17 cells immobilised on glutathione-Sepharose. The note with it: for Max. fold activation: immobilised α1β2γ1; for EC50: immobilised α1β2γ1, 0–30 µM activator. The series is classed as biochemical.

In a further series the test system is COS7 cells. The series is described as follows: Immunoblot of AMPK signalling in COS7 cells. The note with it: COS7, 2.5 µM, 1 h. The series is classed as cell-based. The procedure:
To evaluate the efficacy of MSG011 in cellulo, we incubated mouse primary hepatocytes with 2.5 µM MSG011 for 60 min and tracked changes in phosphorylation of AMPK α-Thr172 (marker of activation) and the AMPK substrate acetyl-CoA carboxylase (ACC) Ser79 (AMPK signalling marker).
HEK293T/17, HEK293T, COS7, HeLa and PC3 cells (ATCC) were maintained in Dulbecco's Modified Eagle's medium (DMEM; Sigma–Aldrich) supplemented with 10% fetal bovine serum (FBS; Assay Matrix) at 37°C and 5% CO2. Primary hepatocytes from wild type mice were prepared using the collagenase perfusion method and cultured as described previously. Cultures were incubated with fresh DMEM (no FBS) for 2 h prior to 1 h treatment with MSG011 (dissolved in DMSO) or phenformin (dissolved in H2O). Adherent HEK293T/17 cells at ∼50% confluency were triply transfected with AMPK α1 (pcDNA3.1 vector), β1 (COOH-terminal MYC fusion, pcDNA3.1 vector) and WT γ1 or γ1-R299G mutant (NH2-terminal HA fusion, pMT2 vector) in the presence of FuGENE HD transfection reagent (Promega) as per the manufacturers protocol. […]
All samples were separated on 12% SDS–PAGE gels and transferred to an Immobilon-FL PVDF membrane (Merck Millipore). […] Immunoblots were visualised on the Odyssey Infrared Imaging System (LI-COR Biosciences) and immunoreactive bands analysed and quantified using Image Studio Software (LI-COR Biosciences).

T2 sequence (Q13131 whole entry, the tested form may be a part): as the sequence (Q13131 whole entry, the tested form may be a part) above
T2 sequence (O43741 whole entry, the tested form may be a part): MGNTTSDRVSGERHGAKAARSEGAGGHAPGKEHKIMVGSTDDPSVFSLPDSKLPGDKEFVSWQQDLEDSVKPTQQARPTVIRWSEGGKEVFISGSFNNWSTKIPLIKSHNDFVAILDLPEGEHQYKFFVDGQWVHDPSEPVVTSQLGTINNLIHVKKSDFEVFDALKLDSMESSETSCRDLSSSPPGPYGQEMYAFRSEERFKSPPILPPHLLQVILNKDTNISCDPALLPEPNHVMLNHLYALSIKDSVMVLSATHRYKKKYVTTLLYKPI
T2 sequence (P54619 whole entry partner, the tested form may be a part): as the sequence (P54619 whole entry partner, the tested form may be a part) above

`O[C@@H]1CO[C@H]2[C@@H]1OC[C@H]2Oc1nc2nc(-c3ccc(-c4ccccc4)cc3)c(Cl)cc2[nH]1` [MK-8722, reference compound]: the cardiac hypertrophy entry in series [1] (lean and diabetic animal models) is recorded as “reversible cardiac hypertrophy”. The “key disease hallmarks (systemic glucose clearance, glycaemic control)” value in series [1] (rodent and non-human primate models of T2DM) is “robust improvements in key disease hallmarks”. Moreover, the results for the Max. fold activation (in series [2]; at human GST-AMPK α1β2γ1) were 1.8 fold and 4.4 fold, respectively. Further, the EC50 in series [2] came to 1740 nM; at human GST-AMPK α1β2γ1 it was 2180 nM. Moreover, in series [3] (above 1 µM), the α-Thr172 phosphorylation result is “elevated α-Thr172”. Further, the AMPK signalling result in series [3] (below 1 µM, in the absence of increased α-Thr172 phosphorylation) is “stimulate AMPK signalling”.
With `CC(=O)NC1CC=C(c2ccc(-c3nc4nc(Oc5ccc(C)c(C(=O)O)c5)[nH]c4cc3Cl)cc2)CC1` (stereo not shown) [MSG011, 5-((5-(4′-Acetamido-2′,3′,4′,5′-tetrahydro-[1,1′-biphenyl]-4-yl)-6-chloro-1H-imidazo[4,5-b]pyridin-2-yl)oxy)-2-methylbenzoic acid], in the series on COS7 cells, the “AMPK signalling (phosphorylation of ACC-Ser79 and raptor-Ser792)” value was “at levels comparable to extreme energy stress”. In series [2], this compound had a Max. fold activation of 2.6 fold and an EC50 of 25.2 nM. At human GST-AMPK α1β2γ1, the Max. fold activation is given as 2.3 fold and a half-maximal effect (EC50) was put at 249 nM.
